Values quoted from earlier work in patent US8790626B2, “Method for treating hair growth disorders, such as female pattern alopecia, and compositions useful therefore” (The University of Kentucky, priority 2005, dated 2014).

Legend:
[1] = U.S. Pat. No. 6,924,299
[2] = Jacobson, et al., 2005

CCCCCCCCOC(=O)c1cccnc1 [octyl nicotinate]
Blood flow and oxygen delivery to tissue [1]: stimulates blood flow and oxygen delivery to tissue

CCCCCCCCCCCCCCOC(=O)c1cccnc1 [Myristyl nicotinate, myristyl nicotinate]
Epidermal differentiation and skin barrier integrity [2]: promote epidermal differentiation leading to strong enhancement of skin barrier integrity
